Results reported in patent US5008267A, “Pyrimidinedione compounds, method of producing the same and antiarrythmic agents containing the same” (Mitsui Toatsu Chemicals, Incorporated, priority 1988, dated 1991).
Where a name gives a salt, the structure may show the parent alone.

Legend:
[1] = Toxicity test, mortality rate 24 hours after administration; conditions: mouse, in vivo
Protocol: Each of the compounds prepared in the above-mentioned examples was administered into a mouse (ddY strain, male). In each case, oral administration (p.o.) and intra peritoneal administration (i.p.) were separately carried out in a dose of 300 mg/kg and 250 mg/kg, respectively.
A mortality rate (number of specimens: one group=2 to 4 mice) of the mice 24 hours after the administration was calculated, and the results are set forth in Table 3.
Following the same procedure as in Toxicity Test 1, toxicity of the respective compounds prepared in the above examples in Table 5 was tested to calculate a mortality rate of mice.
Administration was made by oral administration (p.o.) in an amount of 300 mg/kg of each compound for one mouse.
Following the same procedure as in Toxicity Test 1, toxicity of the respective compounds prepared in the above examples in Table 7 was tested to calculate a mortality rate of mice.

[2] = tested on: Purkinje fiber of the right ventricular free wall (myocardial action potential); assay: Influence on myocardial action potential duration time (APD75), isolated right ventricular free wall, microelectrode in Purkinje fiber; format: cell-based, dog; conditions: Canis lupus familiaris, 20 min, 20 minutes' incubation; for activation at 1 µg/mL: 1.0 μg/ml; for activation at 1 µg/mL / activation at 3 µg/mL / activation at 10 µg/mL: (B-A)/A×100, read-out: APD75 (%); for activation at 3 µg/mL: 3.0 μg/ml; for activation at 10 µg/mL: 10.0 μg/ml; for activation at 0.3 µg/mL: 0.3 μg/ml, (B-A)/A×100
[3] = tested on: ventricular muscle refractory period; assay: Influence on ventricular muscle refractory period (ERP); format: in vivo, mongrel dog; conditions: Canis lupus familiaris, iv, i.v., (W-Y)/Y×100, read-out: ERP (%; extensibility of refractory period)
Protocol: (2) Influence on ventricular muscle refractory period Refractory periods were measured in the following manner before and after each of the compounds and d-sotalol shown in Table 2 was separately administered to a vein or a duodenum, and ERP (%; extensibility of refractory period) was calculated from the measured values: ERP (%)=(W-Y)/Y×100 W: Refractory period after administration Y: Refractory period before administration To a mongrel adult dog, 30 mg/kg of pentobarbital was administered intravenously, and after being anesthetized, a pair of silver-silver chloride electrodes separated by 3 mm was sewn on an opened right ventricule, and electrical stimulation was given at an interval of 400 msec at a duration time of 4 msec under a current twice as much as the threshold. Afterward, a small amount of alcohol was injected into a sinus artery in order to extinguish a pacemaker activity, and the ventricular refractory period (ERP) was measured under ventricule pacing. That is, each 1 train comprised 10 stimulations having intervals of 400 msec, and an interval between the trains was usually 400 msec. However, this interval was shortened 10 msec by 10 msec at the time of the refractory period measurement, and an interval between the trains at the time when reaction to the first stimulation of the train disappeared was regarded as the refractory period. In this case, the electrical stimulation was fed in accordance with a program by a heart stimulation device (Diamedical Co., Ltd.; DHM-226-3).

| SMILES | mortality at 24 h ([1]; po, 300 mg/kg (p.o.)) [%] | mortality at 24 h ([1]; ip, 250 mg/kg (i.p.)) [%] | activation at 1 µg/mL [2] [%] | activation at 3 µg/mL [2] [%] | change in vivo at 0.1 mg/kg [3] [%] | change in vivo at 0.3 mg/kg [3] [%] | change in vivo at 1 mg/kg [3] [%] | change in vivo at 3 mg/kg [3] [%] | activation at 10 µg/mL [2] [%] | activation at 0.3 µg/mL [2] [%] |
| --- | --- | --- | --- | --- | --- | --- | --- | --- | --- | --- |
| Cn1c(N2CCN(CCCOc3ccc([N+](=O)[O-])cc3C(O)c3ccccc3)CC2)cc(=O)n(C)c1=O (stereo not drawn) [Compound 148, 1,3-dimethyl-6-{4-<3-[2-(α-hydroxybenzyl)-4-nitrophenyloxy]propyl>piperazin-1-yl}-2,4(1H,3H)-pyrimidinedione oxalate] | 0 | – | – | – | – | – | – | – | – | – |
| CC(=O)c1ccc(OCCCN2CCN(c3cc(=O)n(C)c(=O)n3C)CC2)c([N+](=O)[O-])c1 [Compound 77, 1,3-dimethyl-6-{4-[3-(4-acetyl-2-nitrophenoxy)propyl]piperazin-1-yl}-2,4(1H,3H)-pyrimidinedione oxalate] | 0 | – | – | – | – | – | – | – | – | – |
| Cn1c(N2CCN(CCNC(=O)c3ccc([N+](=O)[O-])cc3)CC2)cc(=O)n(C)c1=O [Compound 45, 1,3-dimethyl-6-{4-[2-(4-nitrobenzoylamino)ethyl]piperazin-1-yl}-2,4(1H,3H)-pyrimidinedione hydrochloride] | 0 | – | – | – | – | – | – | – | – | – |
| CCN(CCCCc1ccc([N+](=O)[O-])cc1)CCNc1cc(=O)n(C)c(=O)n1C [Compound 22] | 0 | 50 | – | – | – | – | – | – | – | – |
| Cn1c(N2CCN(CCCOc3cccc([N+](=O)[O-])c3)CC2)cc(=O)n(C)c1=O [Compound 38, 1,3-dimethyl-6-{4-[3-(3-nitrophenoxy)propyl]piperazin-1-yl}-2,4(1H,3H)-pyrimidinedione hydrochloride] | – | – | 15 | 34 | 0 | 0 | 7 | 14 | – | – |
| Cn1c(NCCN(CCCc2ccc([N+](=O)[O-])cc2)CCOC(=O)c2ccccc2)cc(=O)n(C)c1=O [Compound 168, 1,3-dimethyl-6-{2-[N-(2-benzoyloxyethyl)-3-(4-nitrophenyl)propylamino]ethylamino}-2,4(1H,3H)-pyrimidinedione oxalate] | – | – | 48 | 55 | 6 | 12 | 18 | 18 | 68 | – |
| Cn1c(NCCN2CCN(c3ccc([N+](=O)[O-])cc3)CC2)cc(=O)n(C)c1=O [Compound 64, 1,3-dimethyl-6-{2-[4-(4-nitrophenyl)piperazin-1-yl]ethylamino}-2,4(1H,3H)-pyrimidinedione oxalate] | – | – | 23 | 32 | 21.4 | 28.6 | 28.6 | – | – | 8 |
| Cn1c(N2CCN(CCOc3ccc([N+](=O)[O-])cc3)CC2)cc(=O)n(C)c1=O [Compound 53, 1,3-dimethyl-6-{4-[2-(4-nitrophenoxy)ethyl]piperazin-1-yl}-2,4(1H,3H)-pyrimidinedione hydrochloride] | – | – | 8 | 22 | 8.8 | 23 | 30.1 | – | 43 | – |
| Cn1c(N2CCN(CCCc3ccc(C(=O)c4ccccc4)cc3[N+](=O)[O-])CC2)cc(=O)n(C)c1=O [Compound 136, 1,3-dimethyl-6-{4-[3-(4-benzoyl-2-nitrophenyl)propyl]piperazin-1-yl}-2,4(1H,3H)-pyrimidinedione hydrochloride] | – | – | 11 | 14 | – | 7.7 | 15.4 | 15.4 | – | – |
| Cn1c(N2CCN(CCCOc3ccc(Cl)cc3[N+](=O)[O-])CC2)cc(=O)n(C)c1=O [Compound 140, 1,3-dimethyl-6-{4-[3-(4-chloro-2-nitrophenoxy)propyl]piperazin-1-yl}-2,4(1H,3H)-pyrimidinedione hydrochloride] | – | – | 6 | 17 | 0 | 3.55 | 3.55 | – | 29 | – |
| CC(=O)c1cc([N+](=O)[O-])ccc1OCCCN1CCN(c2cc(=O)n(C)c(=O)n2C)CC1 [Compound 76, 1,3-dimethyl-6-{4-[3-(2-acetyl-4-nitrophenoxy)propyl]piperazin-1-yl}-2,4(1H,3H)-pyrimidinedione oxalate] | – | – | 16 | 21 | 2.4 | 4.3 | 12.6 | 16.5 | – | – |
| Cn1c(N2CCN(CCCOc3ccccc3[N+](=O)[O-])CC2)cc(=O)n(C)c1=O [Compound 55, 1,3-dimethyl-6-{4-[3-(2-nitrophenoxy)propyl]piperazin-1-yl}-2.4(1H,3H)-pyrimidinedione hydrochloride] | – | – | – | 18 | 0 | 0 | 6.8 | 13.6 | 39 | – |
| Cn1c(N2CCN(CCc3ccc([N+](=O)[O-])cc3)CC2)cc(=O)n(C)c1=O [Compound 14, 1,3-dimethyl-6-{4-[2-(4-nitrophenyl)ethyl]piperazin-1-yl}-2,4(1H,3H)-pyrimidinedione hydrochloride] | – | – | 43 | – | 14 | 33.5 | – | – | – | 18 |
| Cn1c(NCCNCc2ccc([N+](=O)[O-])cc2)cc(=O)n(C)c1=O [Compound 15, 1,3-dimethyl-6-[2-(4-nitrobenzylamino)ethylamino]-2,4(1H,3H)-pyrimidinedione oxalate] | – | – | – | 6 | 6.3 | 12.5 | 12.5 | 18.8 | 16 | – |
| Cn1c(N2CCN(CCCOc3ccc([N+](=O)[O-])cc3N)CC2)cc(=O)n(C)c1=O [Compound 153, 1,3-dimethyl-6-{4-[3-(2-amino-4-nitrophenyloxy)propyl]piperazin-1-yl}-2,4(1H,3H)-pyrimidinedione oxalate] | – | – | 20 | 25 | 6.1 | 9.1 | 18.3 | – | – | – |
| Cn1c(N2CCN(CCCOc3ccc([N+](=O)[O-])c(C(F)(F)F)c3)CC2)cc(=O)n(C)c1=O [Compound 150, 1,3-dimethyl-6-{4-[3-(3-trifluoromethyl-4-nitrophenyloxy)propyl]piperazin-1-yl}-2,4(1H,3H)-pyrimidinedione oxalate] | – | – | – | 16 | 0 | 0 | 6.3 | 6.3 | – | – |
| Cn1c(N2CCN(CC(O)c3ccc([N+](=O)[O-])cc3)CC2)cc(=O)n(C)c1=O (centres unmarked) [Compound 44, 1,3-dimethyl-6-{4-[2-hydroxy-2-(4-nitrophenyl)ethyl]piperazin-1-yl}-2,4-(1H,3H)-pyrimidinedione hydrochloride] | – | – | 5 | 13 | 0 | 7.7 | 19.9 | 27.8 | 21 | – |
| Cn1c(N2CCN(CCCOc3ccc([N+](=O)[O-])cc3O)CC2)cc(=O)n(C)c1=O [Compound 162, 1,3-dimethyl-6-{4-[3-(2-hydroxy-4-nitrophenyloxy)propyl]piperazin-1-yl}-2,4(1H,3H)-pyrimidinedione hydrochloride] | – | – | 19 | 41 | 0 | 0 | 0 | 0 | 60 | – |
| CC(C)NC[C@@H](O)c1ccc(NS(C)(=O)=O)cc1 [d-sotalol, reference compound] | – | – | 3 | 7.4 | 1.7 | 6.7 | 8.7 | 15.5 | 15.8 | 0 |
